Measured values from patent publication US20150065440A1 (Progen Pharmaceuticals Limited, priority 2007, published 2015).
Where a name gives a salt, the structure may show the parent alone. Read-outs that look alike come from different tables or passages of the source.

Key:
[1] = molecular target: T1, VEGF (Homo sapiens, UniProt P15692); test: Growth factor binding assay (SPR solution affinity), VEGF; conditions: HBS-EP buffer, 25° C.
T1 sequence (P15692 207-395): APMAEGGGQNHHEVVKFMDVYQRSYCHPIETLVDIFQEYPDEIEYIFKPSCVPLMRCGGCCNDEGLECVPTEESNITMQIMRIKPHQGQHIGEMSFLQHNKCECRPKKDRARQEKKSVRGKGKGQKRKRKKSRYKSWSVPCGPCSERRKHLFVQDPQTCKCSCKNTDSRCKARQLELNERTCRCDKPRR
Description: (§1) Binding affinities of compounds for the growth factors FGF-1, FGF-2 and VEGF were measured using a surface plasmon resonance (SPR) based solution affinity assay.^9 Heparin-coated sensorchips used for this assay were prepared via immobilisation of biotinylated BSA-heparin on a streptavidin-coated sensorchip, or via aldehyde coupling using either adipic acid dihydrazide or 1,4-diaminobutane.^9 For each Kd measurement, solutions were prepared containing a fixed concentration of protein and varying concentrations of the ligand in buffer. Ligands binding to FGF-1 and VEGF were measured in HBS-EP buffer (10 mM HEPES, pH 7.4, 150 mM NaCl, 3.0 mM EDTA and 0.005% (v/v) polysorbate 20), while binding to FGF-2 was measured in HBS-EP buffer containing 0.3 M NaCl. Prior to injection, samples were maintained at 4° C. to maximise protein stability. For each assay mixture, 50-200 μL of solution was injected at 5-40 μL/min and the relative binding response measured. All surface binding experiments were performed at 25° C. The surface was regenerated by injection of 40 μL of 4M NaCl at 40 μL/min, followed by injection of 40 μL of buffer at 40 μL/min.
(§2) Sensorgram data were analysed using the BIAevaluation software (BIAcore) and Kd values determined as previously described.^9 Where Kd values were measured in duplicate, the values represent the average of the duplicate measurements.

[2] = molecular target: FGF-1 (Homo sapiens, UniProt P05230); test: Growth factor binding assay (SPR solution affinity), FGF-1
Description: as §1, §2

[3] = system: HUVEC proliferation induced by FGF-1; test: Growth factor induced endothelial cell proliferation assay, FGF-1; assay type: cell-based, human; conditions: Homo sapiens, HUVEC, 72 h; read-out: FGF-1 (IC50) inhibition of HUVEC proliferation
Text: (§3) HUVEC cells were maintained and subcultured according to standard cell culture protocols essentially as described by Lonza. Briefly, cells were maintained in Lonza endothelial growth media (EGM) with recommended supplements and growth factors (VEGF, FGF2, EFG, IGF, hydrocortisone, fetal bovine serum (FBS), ascorbic acid, heparin and gentamicin). Cells were subcultured when they reached 70-80% confluence by trypsinisation and reseeding in fresh growth medium in new culture vessels at 2500 to 5000 cells/cm^2 of vessel surface area. Cell counts were performed using a haemocytometer and viable cells were visualized with trypan blue.
(§4) Medium for the proliferation studies was prepared using EGM with 2% FBS and gentamicin only. In a later study, complete EGM was used for the VEGF groups in an attempt to enhance the proliferative index of VEGF-stimulated groups. For the tube formation assay, complete medium was used with only heparin omitted. Compounds under investigation were weighed out from powder stocks and diluted in PBS to 10 mM stock solutions and stored at −80° C. For experiments, compounds were subsequently diluted in EBM-2 medium (supplemented with 2% FBS and gentamicin) to various working concentration as required.
(§5) In the first of a series of experiments, the assay was further optimized by examining the cell density and growth factor concentration required to induce maximal proliferation by growth factors. Briefly, 100 μL of cells was added to each well at concentrations between 1-3×10^3 per well. Growth factors and test compounds were then added in 50 μL volumes at specified concentrations to obtain a final volume of 200 μL. Following incubation for 70 h, 20 μL of the CellTitre 96® Aqueous One Solution Cell Proliferation Assay (Promega) was added for 2 h prior to reading the absorbance at 490 nm to obtain OD values.

[4] = system: HUVEC proliferation induced by FGF-2; test: Growth factor induced endothelial cell proliferation assay, FGF-2; assay type: cell-based, human; conditions: Homo sapiens, HUVEC, 72 h; read-out: FGF-2 (IC50) inhibition of HUVEC proliferation
Text: as §3, §4, §5

[5] = system: HUVEC proliferation induced by VEGF; test: Growth factor induced endothelial cell proliferation assay, VEGF; assay type: cell-based, human; conditions: Homo sapiens, HUVEC, 72 h; read-out: VEGF (IC50) inhibition of HUVEC proliferation
Text: as §3, §4, §5

[6] = system: pooled normal human plasma; test: Anticoagulant activity, APTT; conditions: 0.1 mg/mL in normal pooled human plasma
Description: APTT measurements were performed on a STAGO STA-Compact Coagulation Analyser using standard protocols according to the manufacturer's instructions. Unfractionated heparin (UFH) was used as a control.

[7] = system: normal pooled human plasma; test: Anticoagulant activity, Heptest; conditions: 0.1 mg/mL in normal pooled human plasma
[8] = system: HSV-2; test: Viral plaque number-reduction assay, HSV-2; conditions: Human alphaherpesvirus 2, read-out: HSV-2 IC50
Description: (§6) African green monkey kidney (GMK AH1) cells^46 were cultured in Eagle's minimum essential medium (EMEM) supplemented with 2% calf serum, 0.05% Primaton RL substance (Kraft Inc., Norwich, USA) and antibiotics. Human epidermoid carcinoma (HEp-2) cells were cultured in Dulbecco's modified EMEM (DMEM) supplemented with 10% fetal calf serum and antibiotics. […] The RSV strain A-2^50 was used. The RSV stock was prepared as described by Hallak et al.^51 and stored at −70° C. in the presence of 40% sucrose^52.
(§7) The viral infectivity (the plaque number-reduction) assay and the plaque size-reduction assay were carried out as described previously^17. […] Subsequently, the cells were washed with 2 mL of EMEM and overlaid with 1% methylcellulose solution in EMEM. The plaques were visualized by staining with crystal violet solution after 2 (HSV-2) or 3 (HSV-1) days of incubation at 37° C. […] When the compounds were screened for anti-HSV or anti-RSV activity, mixtures of 200 PFU of the virus and the test compound (100 μg/mL) in serum-free EMEM were incubated for 10 min at room temperature before addition to cells and during the entire period of viral infection of cells and the development of viral plaques. In the plaque size-reduction assay, the compounds were added to cells (in methylcellulose overlay medium) after 2 h period of virus infection of cells in the absence of the inhibitor. After 2-3 days of incubation at 37° C., the viral plaques were visualized by staining the cells with 1% solution of crystal violet. For each compound tested, the images of twenty neighboring plaques were captured using a Leica DC300 digital camera attached to a Leitz-Wetzlar Diavert microscope. The area of each plaque was determined using IM500 image software (Leica). Similar protocols were used for RSV, except that the assays were performed in HEp-2 cells and DMEM supplemented with 2% heat-inactivated fetal calf serum was used instead of EMEM.

[9] = system: RSV; test: Viral plaque number-reduction assay, RSV; conditions: human respiratory syncytial virus, read-out: RSV IC50
Description: as §6, §7

[10] = molecular target: T2, recombinant human heparanase (Homo sapiens, UniProt Q9Y251); test: Heparanase inhibition assay (fondaparinux cleavage, WST-1)
T2 sequence (Q9Y251 158-543 limits assumed): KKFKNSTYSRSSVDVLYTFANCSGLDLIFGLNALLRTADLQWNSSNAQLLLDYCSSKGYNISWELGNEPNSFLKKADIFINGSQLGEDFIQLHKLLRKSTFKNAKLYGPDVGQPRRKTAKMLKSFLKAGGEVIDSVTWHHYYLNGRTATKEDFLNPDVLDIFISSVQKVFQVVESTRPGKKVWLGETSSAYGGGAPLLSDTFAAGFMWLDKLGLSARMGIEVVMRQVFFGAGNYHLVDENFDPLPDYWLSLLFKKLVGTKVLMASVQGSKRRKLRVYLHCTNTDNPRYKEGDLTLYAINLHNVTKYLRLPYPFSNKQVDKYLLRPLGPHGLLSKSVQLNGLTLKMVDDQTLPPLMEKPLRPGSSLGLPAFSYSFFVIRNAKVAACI
T2 sequence (Q9Y251 36-109 limits assumed): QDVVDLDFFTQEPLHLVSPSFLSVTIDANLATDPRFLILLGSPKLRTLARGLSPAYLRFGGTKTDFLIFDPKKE
Description: In the presence of an inhibitor the catalytic activity of heparanase is reduced, and the amount of disaccharide produced and the optical density of the solution are both decreased. The percent inhibition and IC50 of the inhibitor are determined from measurement of the optical density (OD) over a range of inhibitor concentrations.
Assays were carried out in 40 mM sodium acetate buffer, pH 5.0, as follows. […] A blue colour was developed by incubation of the plates at 60° C. for 60 min. […] The IC50 value for each compound was evaluated and converted into a Ki (inhibition constant) using the expression

[11] = molecular target: FGF-2 (Homo sapiens, UniProt P09038); test: Growth factor binding assay (SPR solution affinity), FGF-2
Description: as §1, §2

[12] = assay type: in vivo, Sprague-Dawley rats; conditions: rat, in vivo
Description: Adult male Sprague-Dawley (SD) rats (approx 300 g) were used for the experiment. Femoral artery cannulae was implanted and exteriorised following isoflurane anaesthesia. Jugular vein artery cannulae was implanted and exteriorized. […]. Blood samples (˜325 μL) were collected into sample tubes containing the anticoagulant sodium citrate from femoral artery catheter pre-dose and at 5, 20 minutes and 2, 5, 8, 12, 24, and 48 hours post-dose, and kept at reduced temperature (approx 4° C.) until centrifuged. Blood samples were centrifuged, plasma separated and 50 μL aliquot of the plasma transferred to a scintillation vial for counting. At the end of the experimental period animals were euthanased via a lethal overdose of pentobarbital. The level of radioactivity in the plasma was measured following mixing of samples with Packard Ultima Gold liquid scintillation counting cocktail. Counting was conducted on a Beckman liquid scintillation counter (LS6500) or Packard TriCarb liquid scintillation counter for 10 minutes per sample. Results (DPM, calculated from an in-built quench curve in the counter) were corrected for background prior to any calculations. The pharmacokinetic parameters were calculated using PK Solutions 2.0 software (Summit Research Services, Ohio, U.S.A.) and are summarised in Table 11 below.

[13] = SPR, HBS-EP buffer, 25° C., read-out: Kd FGF-1
[14] = SPR, HBS-EP buffer containing 0.3 M NaCl, 25° C., read-out: Kd FGF-2

Chain of FGF-1 (P05230 whole entry, species assumed): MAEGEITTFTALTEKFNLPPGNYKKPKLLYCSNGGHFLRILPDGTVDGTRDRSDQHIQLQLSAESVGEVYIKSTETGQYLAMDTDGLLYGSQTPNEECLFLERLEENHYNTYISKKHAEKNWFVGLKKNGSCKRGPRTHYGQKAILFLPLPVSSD
Chain of FGF-2 (P09038 143-288, species assumed): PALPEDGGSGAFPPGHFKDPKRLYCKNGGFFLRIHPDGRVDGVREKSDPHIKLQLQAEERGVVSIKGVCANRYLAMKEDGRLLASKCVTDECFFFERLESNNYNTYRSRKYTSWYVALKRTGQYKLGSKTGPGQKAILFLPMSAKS

| Molecule | Kd [1] [nM] | Kd [2, 13] [nM] | IC50 [3] [nM] | IC50 [4] [nM] | IC50 [5] [nM] | APTT [6] [s] | Heptest [7] [s] | IC50 [8] [µg/mL] | IC50 [9] [µg/mL] | Ki ([10]; read-out: Ki Heparanase, IC50 converted into Ki, fondaparinux 100 μM, pH 5.0) [nM] | Kd [2] [nM] | Kd [11] [nM] | Ki [10] [nM] | Kd [11, 14] [nM] | Half-life (iv) ([12]; iv) [h] | Half-life (sc) ([12]; sc) [h] |
| --- | --- | --- | --- | --- | --- | --- | --- | --- | --- | --- | --- | --- | --- | --- | --- | --- |
| CC(C)CCC[C@@H](C)[C@H]1CC[C@H]2[C@@H]3CC[C@H]4C[C@@H](O[C@H]5O[C@H](COS(=O)(=O)O)[C@@H](OS(=O)(=O)O)[C@H](OS(=O)(=O)O)[C@@H]5OS(=O)(=O)O)CC[C@]4(C)[C@H]3CC[C@]12C [Compound 79, 3β-Cholestanyl 2,3,4,6-tetra-O-sulfonato-α-D-mannopyranoside tetrasodium salt] | 3000 ± 400 | 3600 ± 600 | 2200 | 2900 | 2240 | 36.1 | 23.9 | 0.28 | 2.9 | 111 ± 28 | – | – | – | – | – | – |
| CC(C)CCCC(C)C1CCC2C3CCC4CC(OCc5cn(C6OC(COS(=O)(=O)O)C(OC7OC(COS(=O)(=O)O)C(OS(=O)(=O)O)C(OS(=O)(=O)O)C7OS(=O)(=O)O)C(OS(=O)(=O)O)C6OS(=O)(=O)O)nn5)CCC4(C)C3CCC12C [Compound 93, 4-(Cholestan-3β-yl-oxymethyl) [1,2,3]triazol-1-yl 2,3,4,6-tetra-O-sulfo-β-D-galactopyranosyl-(1→4)-2,3,6-tri-O-sulfo-β-D-glucopyranoside, heptasodium salt] | 1600 ± 300 | – | 2690 | 2430 | 2620 | 39.6 | 25.3 | 0.27 | 0.4 | – | 610 ± 210 | 1800 ± 300 | 30 ± 7 | – | – | – |
| CC(C)CCC[C@@H](C)[C@H]1CC[C@H]2[C@@H]3CC[C@H]4C[C@@H](OCc5cn([C@@H]6O[C@H](COS(=O)(=O)O)[C@@H](O[C@H]7O[C@H](COS(=O)(=O)O)[C@@H](OS(=O)(=O)O)[C@H](OS(=O)(=O)O)[C@H]7OS(=O)(=O)O)[C@H](OS(=O)(=O)O)[C@H]6OS(=O)(=O)O)nn5)CC[C@]4(C)[C@H]3CC[C@]12C [Compound 97, 4-(Cholestan-3β-yl-oxymethyl) [1,2,3]triazol-1-yl 2,3,4,6-tetra-O-sulfo-α-D-glucopyranosyl-(1→4)-2,3,6-tri-O-sulfo-β-D-glucopyranoside, heptasodium salt] | 1930 ± 230 | 840 ± 130 | 4090 | 4170 | 1130 | 40.3 | 26.7 | 0.26 | 0.58 | – | – | – | – | 3400 ± 300 | – | – |
| CC(C)CCCC(C)C1CCC2C3CCC4CC(OC5OC(COS(=O)(=O)O)C(OC6OC(COS(=O)(=O)O)C(OS(=O)(=O)O)C(OS(=O)(=O)O)C6OS(=O)(=O)O)C(OS(=O)(=O)O)C5OS(=O)(=O)O)CCC4(C)C3CCC12C [Compound 102, 3′-Cholestanyl 2,3,4,6-tetra-O-sulfo-α-D-glucopyranosyl-(1→4)-2,3,6-tri-O-sulfo-β-D-glucopyranoside, heptasodium salt] | 1200 ± 400 | – | 3950 | > 10000 | 5170 | 38.6 | 23.9 | 0.43 | 1.8 | – | 560 ± 30 | – | – | 2200 ± 400 | – | – |
| PI-88 [reference compound] | – | – | – | – | – | – | – | – | – | – | – | – | – | – | 1.1 | 1.2 |
